From patent publication US20240083861A1, “HSD17B13 INHIBITORS AND USES THEREOF” (FL2022-001, Inc., priority 2020, published 2024)
pIC50: −log10 of the molar value.

target: T1, Recombinant human HSD17B13 enzyme (Homo sapiens, UniProt Q7Z5P4); assay: HSD17b13 NAD(P)H-Glo biochemical assay; details: 50 uM estradiol, 1 mM NAD+, NAD(P)H-Glo luminescence; read-out: HSD17β13 IC50
T1 sequence (Q7Z5P4 20-300): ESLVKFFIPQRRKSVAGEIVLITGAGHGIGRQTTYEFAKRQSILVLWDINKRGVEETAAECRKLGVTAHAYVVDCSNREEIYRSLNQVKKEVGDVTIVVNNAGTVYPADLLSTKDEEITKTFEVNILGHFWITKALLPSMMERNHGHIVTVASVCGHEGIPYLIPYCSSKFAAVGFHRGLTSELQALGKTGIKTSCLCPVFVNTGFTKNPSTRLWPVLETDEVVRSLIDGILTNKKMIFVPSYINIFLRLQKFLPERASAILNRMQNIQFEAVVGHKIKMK
Description: Example B-1: HSD17b13 NAD(P)H-Glo Biochemical Assay
Recombinant human HSD17B13 enzyme. Substrate: estradiol (Sigma β-Estradiol E8875), 100 mM in DMSO. Cofactor: NAD+ Grade I free acid (Sigma 10127965001), 20 mM in H2O. Assay buffer final concentration: 20 mM Tris pH7.4 with 0.002% Tween-20 and 0.02% BSA. Assay performed in 384 well solid bottom plate (Corning 3570). Enzymatic activity detected by NAD(P)H-Glo™ Detection System (Promega G9062).
Inhibitor compounds were serially diluted in DMSO and then further diluted in assay buffer to a 10× concentration consisting of 1% DMSO.
HSD17b13 enzyme was diluted in 1× assay buffer to the desired enzyme concentration based on the specific activity of the enzyme lot. 20 uL of diluted enzyme was added to each well along with 2.5 uL of 10× inhibitor solution. Assay plate was incubated at RT for 20 minutes, and then 2.5 uL of a 10× substrate/cofactor mix was added to each well for a final concentration of 50 uM estradiol and 1 mM NAD+. Assay plate was incubated at 37° C. for 3 hours. NAD(P)H-Glo™ Detection System reagents were prepared according to manufacturer's specifications, and 25 uL was added to each well. After incubating for 1 hour at RT, luminescence was measured.

SMILES | pIC50
O=C(NC1CCC1)c1ccc2oc(-c3cc(O)c(F)c(F)c3)nc2c1 [Compound 1, N-Cyclobutyl-2-(3,4-difluoro-5-hydroxyphenyl)benzo[d]oxazole-5-carboxamide] | > 7.00
O=C(NC1CC1)c1ccc2oc(-c3cc(O)c(F)c(F)c3)nc2c1 [Compound 1.01, N-Cyclopropyl-2-(3,4-difluoro-5-hydroxyphenyl)benzo[d]oxazole-5-carboxamide] | 4.52 to 6.00
O=C(NC1CCCC1)c1ccc2oc(-c3cc(O)c(F)c(F)c3)nc2c1 [Compound 1.02, N-Cyclopentyl-2-(3,4-difluoro-5-hydroxyphenyl)benzo[d]oxazole-5-carboxamide] | > 7.00
O=C(NC1CCCCC1)c1ccc2oc(-c3cc(O)c(F)c(F)c3)nc2c1 [Compound 1.03, N-Cyclohexyl-2-(3,4-difluoro-5-hydroxyphenyl)benzo[d]oxazole-5-carboxamide] | > 7.00
CS(=O)(=O)N1CCN(C(=O)c2ccc3oc(-c4cc(O)c(F)c(F)c4)nc3c2)CC1 [Compound 1.04, (2-(3,4-Difluoro-5-hydroxyphenyl)benzo[d]oxazol-5-yl)(4-(methylsulfonyl)piperazin-1-yl)methanone] | 4.52 to 6.00
CS(=O)(=O)NC1CN(C(=O)c2ccc3oc(-c4cc(O)c(F)c(F)c4)nc3c2)C1 [Compound 1.05, N-(1-(2-(3,4-Difluoro-5-hydroxyphenyl)benzo[d]oxazole-5-carbonyl)azetidin-3-yl)methanesulfonamide] | 6.00 to 7.00
O=C(c1ccc2oc(-c3cc(O)c(F)c(F)c3)nc2c1)N1CCOCC1 [Compound 1.06, (2-(3,4-Difluoro-5-hydroxyphenyl)benzo[d]oxazol-5-yl)(morpholino)methanone] | 6.00 to 7.00
O=C(NC1CCOCC1)c1ccc2oc(-c3cc(O)c(F)c(F)c3)nc2c1 [Compound 1.07, 2-(3,4-Difluoro-5-hydroxyphenyl)-N-(tetrahydro-2H-pyran-4-yl)benzo[d]oxazole-5-carboxamide] | 6.00 to 7.00
COC1CCN(C(=O)c2ccc3oc(-c4cc(O)c(F)c(F)c4)nc3c2)CC1 [Compound 1.08, (2-(3,4-Difluoro-5-hydroxyphenyl)benzo[d]oxazol-5-yl)(4-methoxypiperidin-1-yl)methanone] | 4.52 to 6.00
O=C(NC12CC(C1)C2)c1ccc2oc(-c3cc(O)c(F)c(F)c3)nc2c1 [Compound 1.09, N-(Bicyclo[1.1.1]pentan-1-yl)-2-(3,4-difluoro-5-hydroxyphenyl)benzo[d]oxazole-5-carboxamide] | > 7.00
O=C(NC12CC(C1)C2)c1ccc2oc(-c3cc(O)c(F)c(C(F)(F)F)c3)nc2c1 [Compound 1.10, N-(Bicyclo[1.1.1]pentan-1-yl)-2-(4-fluoro-3-hydroxy-5-(trifluoromethyl)phenyl)benzo[d]oxa-zole-5-carboxamide] | > 7.00
O=C(NC12CC(O)(C1)C2)c1ccc2oc(-c3cc(O)c(F)c(C(F)(F)F)c3)nc2c1 [Compound 1.11, 2-(4-Fluoro-3-hydroxy-5-(trifluoromethyl)phenyl)-N-(3-hydroxybicyclo[1.1.1]pentan-1-yl)benzo[d]oxazole-5-carboxamide] | 6.00 to 7.00
O=C(NC12CC(C1)C2)c1cc2nc(-c3cc(O)c(F)c(C(F)(F)F)c3)oc2cn1 [Compound 1.24, N-(Bicyclo[1.1.1]pentan-1-yl)-2-(4-fluoro-3-hydroxy-5-(trifluoromethyl)phenyl)oxazolo[5,4-c]pyridine-6-carboxamide] | > 7.00

Now from value to molecule:

pIC50 | SMILES
> 7.00 | O=C(NC12CC(C1)C2)c1ccc2oc(-c3cc(C(F)(F)F)cc(O)c3F)nc2c1 [Compound 1.12, N-(Bicyclo[1.1.1]pentan-1-yl)-2-(2-fluoro-3-hydroxy-5-(trifluoromethyl)phenyl)benzo[d]oxa-zole-5-carboxamide]
> 7.00 | O=C(NC12CC(C1)C2)c1ccc2oc(-c3cc(C(F)(F)F)c(F)c(O)c3F)nc2c1 [Compound 1.13, N-(Bicyclo[1.1.1]pentan-1-yl)-2-(2,4-difluoro-3-hydroxy-5-(trifluoromethyl)phenyl)benzo[d]oxa-zole-5-carboxamide]
> 7.00 | O=C(NC1CCC1)c1ccc2oc(-c3cc(C(F)(F)F)c(F)c(O)c3F)nc2c1 [Compound 1.14, N-Cyclobutyl-2-(2,4-difluoro-3-hydroxy-5-(trifluoromethyl)phenyl)benzo[d]oxa-zole-5-carboxamide]
6.00 to 7.00 | CN(C(=O)c1ccc2oc(-c3cc(C(F)(F)F)c(F)c(O)c3F)nc2c1)C1CCC1 [Compound 1.15, N-Cyclobutyl-2-(2,4-difluoro-3-hydroxy-5-(trifluoromethyl)phenyl)-N-methylbenzo[d]oxazole-5-carboxamide]
6.00 to 7.00 | CO[C@H]1C[C@H](NC(=O)c2ccc3oc(-c4cc(C(F)(F)F)c(F)c(O)c4F)nc3c2)C1 [Compound 1.16, 2-(2,4-Difluoro-3-hydroxy-5-(trifluoromethyl)phenyl)-N-(trans-3-methoxycyclobutyl)benzo[d]oxazole-5-carboxamide]
6.00 to 7.00 | O=C(c1ccc2oc(-c3cc(C(F)(F)F)c(F)c(O)c3F)nc2c1)N1CCC1 [Compound 1.17, Azetidin-1-yl(2-(2,4-difluoro-3-hydroxy-5-(trifluoromethyl)phenyl)benzo[d]oxa-zol-5-yl)methanone]
4.52 to 6.00 | CN1CC(NC(=O)c2ccc3oc(-c4cc(C(F)(F)F)c(F)c(O)c4F)nc3c2)C1 [Compound 1.18, 2-(2,4-Difluoro-3-hydroxy-5-(trifluoromethyl)phenyl)-N-(1-methylazetidin-3-yl)benzo[d]oxazole-5-carboxamide]
6.00 to 7.00 | O=C(NC1COC1)c1ccc2oc(-c3cc(C(F)(F)F)c(F)c(O)c3F)nc2c1 [Compound 1.19, 2-(2,4-Difluoro-3-hydroxy-5-(trifluoromethyl)phenyl)-N-(oxetan-3-yl)benzo[d]oxazole-5-carboxamide]
6.00 to 7.00 | CS(=O)(=O)N1CC(NC(=O)c2ccc3oc(-c4cc(C(F)(F)F)c(F)c(O)c4F)nc3c2)C1 [Compound 1.20, 2-(2,4-Difluoro-3-hydroxy-5-(trifluoromethyl)phenyl)-N-(1-(methylsulfonyl)azetidin-3-yl)benzo[d]oxazole-5-carboxamide]
6.00 to 7.00 | O=C(NC12COC(C1)C2)c1ccc2oc(-c3cc(C(F)(F)F)c(F)c(O)c3F)nc2c1 [Compound 1.21, N-(2-Oxabicyclo[2.1.1]hexan-4-yl)-2-(2,4-difluoro-3-hydroxy-5-(trifluoromethyl)phenyl)benzo[d]oxa-zole-5-carboxamide]
> 7.00 | O=C(NC1CCCC1)c1ccc2oc(-c3cc(C(F)(F)F)c(F)c(O)c3F)nc2c1 [Compound 1.22, N-Cyclopentyl-2-(2,4-difluoro-3-hydroxy-5-(trifluoromethyl)phenyl)benzo[d]oxa-zole-5-carboxamide]
> 7.00 | CC1(NC(=O)c2ccc3oc(-c4cc(C(F)(F)F)c(F)c(O)c4F)nc3c2)CCC1 [Compound 1.23, 2-(2,4-Difluoro-3-hydroxy-5-(trifluoromethyl)phenyl)-N-(1-methylcyclobutyl)benzo[d]oxazole-5-carboxamide]
> 7.00 | N#CC1(NC(=O)c2ccc3oc(-c4cc(C(F)(F)F)c(F)c(O)c4F)nc3c2)CCC1 [Compound 1.25, N-(1-Cyanocyclobutyl)-2-(2,4-difluoro-3-hydroxy-5-(trifluoromethyl)phenyl)benzo[d]oxa-zole-5-carboxamide]
> 7.00 | COCC1(NC(=O)c2ccc3oc(-c4cc(C(F)(F)F)c(F)c(O)c4F)nc3c2)CCC1 [Compound 1.26, 2-(2,4-Difluoro-3-hydroxy-5-(trifluoromethyl)phenyl)-N-(1-(methoxymethyl)cyclobutyl)benzo[d] oxazole-5-carboxamide]
6.00 to 7.00 | O=C(NC1(CCO)CCC1)c1ccc2oc(-c3cc(C(F)(F)F)c(F)c(O)c3F)nc2c1 [Compound 1.27, 2-(2,4-Difluoro-3-hydroxy-5-(trifluoromethyl)phenyl)-N-(1-(2-hydroxyethyl)cyclobutyl)benzo[d]oxa-zole-5-carboxamide]
6.00 to 7.00 | O=C(NC1(CO)CCC1)c1ccc2oc(-c3cc(C(F)(F)F)c(F)c(O)c3F)nc2c1 [Compound 1.28, 2-(2,4-Difluoro-3-hydroxy-5-(trifluoromethyl)phenyl)-N-(1-(hydroxymethyl)cyclobutyl)benzo[d] oxazole-5-carboxamide]
> 7.00 | N#CCC1(NC(=O)c2ccc3oc(-c4cc(C(F)(F)F)c(F)c(O)c4F)nc3c2)CCC1 [Compound 1.29, N-(1-(Cyanomethyl)cyclobutyl)-2-(2,4-difluoro-3-hydroxy-5-(trifluoromethyl)phenyl)benzo[d]oxa-zole-5-carboxamide]
6.00 to 7.00 | O=C(NCC1(O)CCC1)c1ccc2oc(-c3cc(C(F)(F)F)c(F)c(O)c3F)nc2c1 [Compound 1.30, 2-(2,4-Difluoro-3-hydroxy-5-(trifluoromethyl)phenyl)-N-((1-hydroxycyclobutyl)methyl)benzo[d] oxazole-5-carboxamide]
